A short description of data set [1]: Acute toxic effect of platinum complex on normal mice (LD50, single intravenous administration). The settings on record: both sexes, Kunming, mouse, in vivo; single intravenous administration in 5% glucose solution, 14 days observation, Bliss method. Format: in vivo, Kunming mice. The procedure:
(§1) Kunming mice at 4˜6 weeks old and at the weight of 18˜22 g were taken, 50% male and 50% female. Embodiment platinum compound was dissolved with 5% glucose solution. […] Mortality and toxicity were observed after administration, totally observing 14 days, LD50 value was calculated with Bliss method according to mortality.

Data set [2] can be described thus: physchem. The following applies: water.
Data set [3] has as its system normal mice. Nature of the data set: Acute toxic effect of platinum complex on normal mice (LD50, single intravenous administration). It counts as in vivo, Kunming mice. The settings on record: single intravenous administration in 5% glucose solution, 14 days observation, Bliss method. On the procedure: as §1
For data set [4], the system named is Lung cancer H292. Kind of data set: MTT cytotoxicity, lung cancer H292. Format: cell-based. The following applies: n = 6, Lung cancer H292. The procedure:
(§2) Several kinds of tumor cells in exponential growth phase were prepared into single cell suspension, inoculated on 96 pore plat at the density of 4×10^4/hole, cultivated for 24 hours to enable to adhere to wall with 1640 culture medium containing 10% fetal calf serum (complete medium) at 37° C.; the final culture volume was 100 μl. Cell morphology was observed after culture for 24 hours.

Data set [5] has as its system Pulmonary epithelial cell BEAS-2B. Nature of the data set: MTT cytotoxicity, pulmonary epithelial cell BEAS-2B. The settings on record: n = 6, Pulmonary epithelial cell BEAS-2B. Format: cell-based. The procedure: as §2
In data set [6] the test system is Lewis lung cancer. Nature of the data set: MTT cytotoxicity, Lewis lung cancer. The settings on record: n = 6, Lewis lung cancer. Format: cell-based. On the procedure: as §2
Data set [7] concerns Colon cancer SW480. Kind of data set: MTT cytotoxicity, colon cancer SW480. The settings on record: n = 6, Colon cancer SW480. Format: cell-based. On the procedure:
as §2

Data set [8] relates to breast cancer MCF-7. Kind of data set: In vivo antitumor activity, breast cancer MCF-7 in nude mice. The following applies: MCF-7 in female nude mice, 10 mg (platinum)/kg, once a week, 4 times, tumor weighed 4 weeks later.
Data set [9] deals with Testis cell ST. Nature of the data set: MTT cytotoxicity, testis cell ST. Format: cell-based. The following applies: n = 6, Testis cell ST. On the procedure:
as §2

The subject of data set [10] is Gastric cancer MGC803. Kind of data set: MTT cytotoxicity, gastric cancer MGC803. It counts as cell-based. The settings on record: n = 6, Gastric cancer MGC803. On the procedure: as §2
Data set [11] relates to Esophagus cancer ECA109. Kind of data set: MTT cytotoxicity, esophagus cancer ECA109. Format: cell-based. The following applies: n = 6, Esophagus cancer ECA109. The procedure: as §2
Data set [12] in a line: Solubility in water of the embodiment and contrast compounds.

Data on 17 compounds can be found in patent US9175024B2, “Platinum compound having amino or alkylamino-containing succinic acid derivatives as leaving group, preparation method thereof, and use thereof” (BEIJING FSWELCOME TECHNOLOGY DEVELOPMENT CO., LTD., priority 2011, dated 2015).

Broadly, the LD50 is the dose at which mortality reaches 50%. A high value points to a less toxic substance. One may read the solubility as the dissolved amount per volume that the medium holds. As a reminder, the IC50 is the concentration that gives 50% inhibition.

Consider `CNCCC1CC(=O)[O][Pt]([NH2])([NH2])[O]C1=O` (stereo not drawn) [Compound 1, [2-(2-methylaminoethyl)-succinato].[Cis-diamine]platinum (II)], for which, in [1], the LD50 at 14 days turned out to be 523 µmol/kg. This compound also returned a solubility in data set [2] of 208 mg/mL.

Turning to `CN(C)CCC1CC(=O)[O][Pt]([NH2])([NH2])[O]C1=O` (stereo not drawn) [Compound 2, [2-(2-dimethylaminoethyl)-succinato].[Cis-diamine]platinum (II)], the LD50 at 14 days in data set [1] stood at 511 µmol/kg. In [2], this compound returned a solubility of 176 mg/mL.

Regarding `CCCN(CCC)CCCC(CC(=O)[O-])C(=O)[O-].N[C@@H]1CCCC[C@H]1N.[Pt+2]` (stereo not drawn) [Compound 14, [2-(3-di-n-propylamino propyl)-succinato].[Cis-(1,2-trans-cyclohexyldiamine)]platinum (II)], in data set [3], the LD50 value is recorded as 0.467 mmol/kg. Moreover, the IC50 is 9 µM in [4], 8 µM in data set [5], 37 µM in data set [6] and 51 µM in data set [7]. The “Tumor inhibition rate (x ± SD)” value in data set [8] is 70.1 ± 11.55 9%.

On to `CCCN(CCC)CCCC(CC(=O)[O-])C(=O)[O-].NCCCCN.[Pt+2]` (stereo not drawn) [Compound 20, [2-(3-di-n-propylaminopropyl)-succinato].[Cis-1,4-butyldiamine]platinum (II)], for which, in data set [3], the LD50 value is given as 0.513 mmol/kg. Further, the IC50 in data set [4] was 59 µM; in data set [9], 22 µM; in data set [10], 66 µM; in data set [11], 13 µM. Also, the “Tumor inhibition rate (x ± SD)” value in data set [8] is 66.7 ± 10.61 9%. The compound also came in with a solubility in data set [12] of 162 mg/mL.

In the case of `CCN(CC)CCC(CC(=O)[O-])C(=O)[O-].NCC1CCC1CN.[Pt+2]` (racemic) [Compound 24, [2-(2-diethylamino ethyl)-succinato].[Cis-1,4-(trans-2,3-cyclobutyl)-butanediamine]platinum (II)], the LD50 value in data set [3] is reported as 0.525 mmol/kg. Moreover, the IC50 in data set [4] came to 25 µM; in data set [9], 12 µM; in data set [10], 119 µM; in data set [11], 71 µM. Besides, the “Tumor inhibition rate (x ± SD)” value in [8] is 69.3 ± 10.13 9%. This compound also had a solubility in data set [12] of 176 mg/mL.

As to `CCN(CC)CCC1CC(=O)[O][Pt]2([NH]CCC[NH]2)[O]C1=O` (stereo not drawn) [Compound 19, [2-(2-diethylaminoethyl)-succinato].[Cis-1,3-propyldiamine]platinum (II)], in data set [3], the LD50 value amounted to 0.454 mmol/kg. Moreover, the IC50 in [4] was 102 µM; in [9], 12 µM; in [10] it was 117 µM; in data set [11] it was 8 µM. For the same compound, the “Tumor inhibition rate (x ± SD)” value in data set [8] is on record as 65.3 ± 9.15 9%. The compound also registered a solubility in data set [12] of 200 mg/mL.

With `CCN(CC)CCC1CC(=O)[O][Pt]2([NH]CC3(CCOCC3)C[NH]2)[O]C1=O` (stereo not drawn) [Compound 26, [2-(2-diethylaminoethyl)-succinato].[Cis-1,3-(2,2-(4-oxacyclohexyl))-propyldiamine]platinum (II)], the LD50 value in data set [3] turned out to be 0.526 mmol/kg. Besides, the IC50 came to 47 µM in data set [4], 44 µM in [9], 35 µM in data set [10] and 32 µM in data set [11]. Besides, the “Tumor inhibition rate (x ± SD)” value in data set [8] was 76.4 ± 14.85 9%. The solubility in [12] stood at 165 mg/mL.

In [3], `CCN(CC)CCC1CC(=O)[O][Pt]2([NH]C(CO)C(CO)[NH]2)[O]C1=O` (stereo not drawn) [Compound 21, [2-(2-diethyl amino ethyl)-succinato].[Cis-1,2-(1,2-dihydroxymethyl)-ethyldiamine]platinum (II)] had an LD50 value of 0.681 mmol/kg. Also, the IC50 in data set [4] was 21 µM; in data set [9], 143 µM; in [10], 109 µM; in data set [11] it was 84 µM. Further, in data set [8], the “Tumor inhibition rate (x ± SD)” value is on record as 68.3 ± 10.88 9%. In addition, the solubility in data set [12] was 176 mg/mL.

With `CN(C)CCC1CC(=O)[O][Pt]2([NH]CC(CO)(CO)C[NH]2)[O]C1=O` (stereo not drawn) [Compound 22, [2-(2-dimethyl amino ethyl)-succinato].[Cis-1,3-(2,2-dihydroxytmethyl)-propyldiamine]platinum (II)], in [3], the LD50 value is 0.452 mmol/kg. For the same compound, the IC50 in data set [4] worked out at 65 µM; in data set [9], 52 µM; in data set [10], 15 µM; in [11], 17 µM. Also, the “Tumor inhibition rate (x ± SD)” value in data set [8] was 70.8 ± 10.12 9%. Besides, the solubility in [12] is 205 mg/mL.

`CCN(CC)CCCC(CC(=O)[O-])C(=O)[O-].NC1CCCC1N.[Pt+2]` (racemic) [Compound 15, [2-(3-diethylamino propyl)-succinato].[Cis-(1,2-trans-cyclopentyldiamine)]platinum (II)] gave an LD50 value in data set [3] of 0.528 mmol/kg. Besides, the IC50 in [4] came to 145 µM; in [5], 15 µM; in [6] it was 51 µM; in data set [7] it was 32 µM. Further, the “Tumor inhibition rate (x ± SD)” value in data set [8] is 73.5 ± 12.31 9%. Further, the solubility in data set [12] turned out to be 151 mg/mL.

The compound `CN(C)CCC(CC(=O)[O-])C(=O)[O-].NCC1CCC1CN.[Pt+2]` (racemic) [Compound 23, [2-(2-dimethylaminoethyl)-succinato].[Cis-1,4-(trans-2,3-cyclobutyl)-butyldiamine]platinum (II)] gave an LD50 value in data set [3] of 0.512 mmol/kg. For the same compound, the IC50 was 51 µM in [4], 18 µM in data set [9], 146 µM in data set [10] and 102 µM in data set [11]. Further, the “Tumor inhibition rate (x ± SD)” value in [8] was 85.1 ± 10.37 9%. The solubility in [12] was found to be 165 mg/mL.

In turn, `CCN(CC)CCC(CC(=O)[O-])C(=O)[O-].NC1CCC(N)CC1.[Pt+2]` (stereo not drawn) [Compound 25, [2-(2-diethylaminoethyl)-succinato].[Cis-1,4-cyclohexyldiamine]platinum (II)] had an LD50 value in data set [3] of 0.459 mmol/kg. The IC50 was 106 µM in [4], 102 µM in [9], 96 µM in data set [10] and 116 µM in data set [11]. Besides, the “Tumor inhibition rate (x ± SD)” value in [8] is on record as 66.9 ± 9.49 9%. For the same compound, the solubility in [12] worked out at 125 mg/mL.

The compound `CCN(CC)CCCCC1CC(=O)[O][Pt]2([NH]C3CCCCC3[NH]2)[O]C1=O.O=P(O)(O)O` (stereo not drawn) [Compound 29, [2-(4-diethylamino butyl)-succinato].[Cis-(1,2-trans-cyclohexyldiamine)]platinum (II) phosphate] displayed an LD50 value in data set [3] of 0.698 mmol/kg. Further, the IC50 in data set [4] came to 3 µM; in [9], 5 µM; in [10], 7 µM; in data set [11] it was 6 µM. Besides, in data set [8], the “Tumor inhibition rate (x ± SD)” value is 82.2 ± 10.82 9%.

As for `CCN(CC)CCCC(CC(=O)[O-])C(=O)[O-].NC1CC1N.[Pt+2]` (racemic) [Compound 17, [2-(3-diethylamino propyl)-succinato].[Cis-(1,2-trans-cyclopropyldiamine)]platinum (II)], the LD50 value in [3] turned out to be 0.581 mmol/kg. The IC50 was 31 µM in [4], 51 µM in data set [9], 13 µM in data set [10] and 72 µM in [11]. In addition, the “Tumor inhibition rate (x ± SD)” value in data set [8] is 82.5 ± 11.34 9%. In [12], this compound came in with a solubility of 195 mg/mL.

Turning to `CCN(CC)CCCCC(CC(=O)[O-])C(=O)[O-].NCCN.[Pt+2]` (stereo not drawn) [Compound 28, [2-(4-diethylamino butyl)-succinato].[Cis-1,2-ethylenediamine]platinum (II) toluenesulfonate], the LD50 value in data set [3] came out at 0.612 mmol/kg. In addition, the IC50 came out at 99 µM in data set [4], 138 µM in data set [9], 162 µM in data set [10] and 56 µM in data set [11]. Moreover, the “Tumor inhibition rate (x ± SD)” value in data set [8] was 76.4 ± 9.78 9%. Besides, in [12], the solubility stood at 187 mg/mL.

Consider `CCN(CC)CCCC1CC(=O)[O][Pt]2([NH]C3CCC3[NH]2)[O]C1=O` (stereo not drawn) [Compound 16, [2-(3-diethylamino propyl)-succinato].[Cis-(1,2-trans-cyclobutyldiamine)]platinum (II)], for which, in data set [3], the LD50 value is recorded as 0.623 mmol/kg. The IC50 was determined as 8 µM in data set [4], 45 µM in data set [5], 33 µM in data set [6] and 84 µM in data set [7]. Further, the “Tumor inhibition rate (x ± SD)” value in data set [8] was 70.4 ± 10.81 9%. This compound also yielded a solubility in data set [12] of 186 mg/mL.

`CN(C)CCC(CC(=O)[O-])C(=O)[O-].NCCN.[Pt+2]` (stereo not drawn) [Compound 18, [2-(2-dimethylaminoethyl)-succinato].[Cis-1,2-ethyldiamine]platinum (II)]: in [3], the LD50 value was 0.532 mmol/kg. Also, the IC50 in [4] was 31 µM; in data set [9], 10 µM; in data set [10], 121 µM; in [11] it was 62 µM. Further, in data set [8], the “Tumor inhibition rate (x ± SD)” value is recorded as 71.8 ± 12.01 9%. Also, the solubility in [12] was 226 mg/mL.
